Assay results published in US10571387B2, “Apparatus and method for determining the mechanical properties of cells” (Zellmechanik Dresden GmbH, priority 2013, dated 2020).

Test system: HL60 cells
Assay: Real-time deformability measurement (circularity) of cells in shear flow through a microfluidic channel
Format: cell-based
Text: In order to compare the deformation of cells, it is useful to introduce a single parameter to quantify the degree of deformation for each single cell. This can be done in numerous ways. • The circularity of a closed contour is defined by
[formula] where A is the area enclosed by the contour and l is the perimeter.
The circularity relates the ratio of area and perimeter to that of an ideal circle. For an ideal circle c=1. All other shapes result in values smaller than 1. […] For initially spherical cells such as the HL60 cell line the circularity is a very sensitive measure for the induced deformation. However for cells initially having other shapes the circularity may not be the ideal choice, since completely different shapes can lead to the same circularity.
The following experimental protocol is used for all measurements described in this section. For comparability all studies on HL60 cells presented in this application are carried out during the log phase of cell growth (36 h after splitting). Cells are centrifuged for 5 minutes at 800 rpm (which leads to an outward acceleration of about 100 g) using an Eppendorf 5804 R centrifuge (Eppendorf, Hamburg, Germany). […] The viscosity of the medium was measured with a falling sphere viscometer (HAAKE Kugelfallviskosimeter Typ C, Thermo Electron GmbH, Karlsruhe, Germany). […]

## C=C1[C@@H](C)[C@H]2[C@H](Cc3ccccc3)NC(=O)[C@]23[C@H](OC(C)=O)/C=C/[C@@](C)(O)C(=O)[C@@H](C)C/C=C/[C@H]3[C@@H]1O [cytochalasin D]
HL60 cells treated with cytochalasin D (2 mM added to a final concentration of 5 μL/ml, 10 minutes at 37° C.), flow rate 0.04 μl/s, 20×20 μm^2 channel section, real time measurement, FIG. 10A
  circularity (peak of the histogram of circularities): 0.929±0.04
HL60 cells treated with cytochalasin D, flow rate of 0.04 μl/s
  deformation compared to untreated cells: deform more
